Literature values in publication PMC9486541, “Design, synthesis and cytotoxic evaluation of novel betulonic acid-diazine derivatives as potential antitumor agents” (Frontiers in Chemistry, 2022).
pIC50: −log10 of the molar value.

How the values were obtained:
[1] = tested on: LNCaP cells; parameters: method as in list in b5; settings: Figure 1, representative BoA derivatives; ref list in b5; cited from earlier work
[2] = tested on: G-361 cells; parameters: method as in list in b5; settings: Figure 1, representative BoA derivatives; ref list in b5; cited from earlier work
[3] = tested on: A375 cells; parameters: method as in list in b5; settings: Figure 1, representative BoA derivatives; ref list in b5; cited from earlier work
[4] = tested on: Hela cells; parameters: method as in list in b5; settings: Figure 1, representative BoA derivatives; ref list in b5; cited from earlier work
[5] = tested on: HCT-116 cells; parameters: method as in list in b5; settings: Figure 1, representative BoA derivatives; ref list in b5; cited from earlier work
[6] = tested on: DLD-1 cells; parameters: method as in list in b5; settings: Figure 1, representative BoA derivatives; ref list in b5; cited from earlier work
[7] = tested on: SW872; parameters: method as in list in b5; settings: Figure 1, representative BoA derivatives; ref list in b5; cited from earlier work
[8] = tested on: LNCaP prostate cancer cells; parameters: method as in Saxena et al., 2006; settings: 100 μM; ref Saxena et al., 2006; cited from earlier work
[9] = tested on: normally proliferating fibroblast cells; parameters: method as in Saxena et al., 2006; settings: ref Saxena et al., 2006; cited from earlier work

C=C(C)C1CC[C@]2(C(=O)NCCCCC(NC(=O)OC(C)(C)C)C(=O)O)CC[C@]3(C)[C@H](CC[C@@H]4[C@@]5(C)CCC(=O)C(C)(C)[C@@H]5CC[C@]43C)[C@@H]12 (stereo partly drawn) [Compound 1]
pIC50 [1]: 5.00

C=C(C)C1CCC2(C(=O)OC3OC(COC(C)=O)C(OC(C)=O)C(OC(C)=O)C3OC(C)=O)CCC3(C)C(CCC4C5(C)CCC(O)C(C)(C)C5CCC43C)C12 (stereo not drawn) [Compound 2]
pIC50 [2]: 5.47

C=C(C)[C@@H]1CC[C@]2(C(=O)Nc3cncc4ccccc34)CC[C@]3(C)C(CCC4[C@@]5(C)CC[C@H](OC(C)=O)C(C)(C)C5CC[C@]43C)C12 (stereo partly drawn) [Compound 3]
pIC50 [3]: 5.83

C=C(C)[C@@H]1CC[C@]2(C(=O)OCCN3CCNCC3)CC[C@]3(C)C(CCC4[C@@]5(C)CC[C@H](O)C(C)(C)C5CC[C@]43C)C12 (stereo partly drawn) [Compound 4]
pIC50 [4]: 5.69

C=C(C)C1CCC2(C(=O)O)CCC3(C)C(CCC4C5(C)CC(=Cc6ccc([N+](=O)[O-])cc6)C(O)C(C)(C)C5CCC43C)C12 (stereo not drawn) [Compound 5]
pIC50 [5]: 5.87

C=C(C)C1CCC2(COC(C)=O)CCC3(C)C(CCC4C5(C)CCC(OC6OC(CO)C(O)C(O)C6O)C(C)(C)C5CCC43C)C12 (stereo not drawn) [Compound 6]
pIC50 [6]: 5.35

C=C(C)[C@@H]1CC[C@]2(C(=O)OCC(N)(CO)CO)CC[C@]3(C)[C@H](CC[C@@H]4[C@@]5(C)CC[C@H](OC(C)=O)C(C)(C)[C@@H]5CC[C@]43C)[C@@H]12 [Compound 7]
pIC50 [7]: 5.74

C=C(C)C1CC[C@]2(C(=O)NCCCCC(NC(=O)OC(C)(C)C)C(=O)O)CC[C@]3(C)[C@H](CC[C@@H]4[C@@]5(C)CCC(=O)C(C)(C)[C@@H]5CC[C@]43C)[C@@H]12 (stereo partly drawn) [boc-lysinated-betulonic acid]
inhibition of LNCaP prostate cancer cells [8]: 95.7%
effect on normally proliferating fibroblast cells [9]: little effect on normally proliferating fibroblast cells
